# Legend:
# [1] = tested on: VCAM-1 expression in TSEC; test: Palmitate-induced VCAM-1 expression in TSEC; assay type: cell-based, mouse; details: 500 μM PA, 16 hours
# Method: Transformed mouse liver sinusoidal endothelial cells (TSEC) were obtained. Primary human liver sinusoidal endothelial cells (LSEC) were purchased from ScienCell Research Laboratories (San Diego, Calif.). To yield primary mouse LSECs, cell suspensions obtained with liver collagenase perfusion were centrifuged at 50 g for 2 minutes to remove hepatocytes. The supernatant which includes non-parenchymal cells was subjected to LSEC isolation using CD146 MicroBeads (Miltenyi Biotec, Bergisch Gladbach, Germany) following the manufacture's instruction. […]
# Cells were lysed using RIPA buffer (50 mM Tris-HCl, pH 7.4; 1% Nonidet P-40; 0.25% sodium deoxycholate; 150 mM NaCl; 1 mM EDTA with protease inhibitors) followed by centrifugation at 15,000 g for 15 minutes at 4° C. Protein concentrations of the lysates were measured by the Bradford assay method (Sigma-Aldrich). […] Proteins were detected using enhanced chemiluminescence reagents (GE Healthcare, Chicago, Ill.). β-actin and GAPDH protein levels were used as loading controls.
# Total RNA was isolated with the RNeasy Mini Kit (Qiagen, Valencia, Calif.) and was reverse transcribed with moloney murine leukemia virus reverse transcriptase and oligo-dT random primers (both from Invitrogen, CA, USA). Quantification of gene expression was performed by real-time PCR using SYBR green fluorescence on a LightCycler 480 instrument (Roche Applied, IN, USA). […]
# [2] = tested on: FFC diet-fed C57BL/6J mice (diet-induced NASH); test: FFC diet-induced NASH mouse model, VCAM-1 blockade (antibody or AGI-1067); assay type: in vivo; details: AGI-1067 25 mg/kg i.p. daily for 15 days, vs vehicle
# Description: C57BL/6J male mice were purchased from Jackson Laboratory (Bar Harbor, Me.). Mice were housed and bred in a temperature-controlled 12:12-hour light-dark cycle facility with free access to diet. The mice were fed either a chow diet (5053 PicoLab Rodent Diet 20, LabDiet, St Louis, Mo.) or a diet rich in fat, fructose, and cholesterol (FFC) at 8-weeks old for 24 weeks. FFC diet consists of 40% energy as fat (12% saturated fatty acid, 0.2% cholesterol) (AIN-76A Western Diet, TestDiet, St Louis, Mo.), with fructose (23.1 g/L) and glucose (18.9 g/L) in the drinking water. The FFC diet induces steatohepatitis with pronounced hepatocellular ballooning, lipoapoptosis, and progressive fibrosis with a high fidelity to the human NASH histology and metabolic profile. At 20 weeks on the diet, the mice were randomized to receive either anti-VCAM-1 neutralizing antibody (M/K-2.7), (Genetex, GTX14360) or IgG isotype antibody (BE0088, InVivoMAb). Mice were injected with 10 mg/kg body weight of either of the antibodies intraperitoneally, twice per week for 4 weeks. Another cohort of Chow or FFC diet-fed mice was randomized to receive either vehicle or VCAM-1 inhibitor succinobucol (AGI-1067). Mice were injected with either vehicle or 25 mg/kg body weight of AGI-1067 intraperitoneally, daily for 15 days. Total caloric intake at the 3rd week of VCAM-1 antibody treatment and the first week of AGI-1067 treatment was calculated based on the weight of food and drinking water consumption. At the third week of anti-VCAM-1 neutralizing antibody treatment, metabolic parameters, including oxygen consumption, carbon dioxide production, and locomotor activity, were measured using a Comprehensive Lab Animal Monitoring System (CLAMS, Columbus Instruments, OH). Anti-VCAM-1 antibody from Bio Xcell (West Lebanon, N.H.), (BE0027) was used for the CLAMS study. Blood glucose levels and plasma insulin levels were measured using Assure 4 (Arkray, Edina, Minn.) and Ultra-Sensitive Mouse Insulin enzyme-linked immunosorbent assay (ELISA) kit (Crystal Chem Inc., Downers Grove, Ill.), respectively. Homeostasis model assessment of insulin resistance (HOMA-IR) was calculated by using the following formula: HOMA-IR=26×fasting insulin level (ng/mL)×fasting glucose level (mg/dL)/405. Mice were sacrificed under general anesthesia induced by a ketamine/xylazine cocktail (83 mg/kg ketamine, 16 mg/kg xylazine, intraperitoneal injection). All interventions were made during the light cycle. Blood and liver samples were collected for further study.
# Liver triglyceride levels were measured in mouse liver homogenates. Fifty milligrams of liver tissue was homogenized in a 5% NP-40 solution. EnzyChrom Triglyceride Kit (BioAssay System, CA) was used for the assay according to the manufacturer's instruction. Photometric absorbance was read at 570 nm using a Synergy H1 microplate reader (BioTek). Serum alanine aminotransferase (ALT) levels were measured by VetScan2 (Abaxis Veterinary Diagnostics, Union City, Calif.).
# Liver histology was performed using tissue fixed in 10% formalin, dehydrated, and embedded in paraffin. Hematoxylin and eosin (H&E) staining and Sirius red staining were performed. Severity of NASH was assessed using nonalcoholic fatty liver disease (NAFLD) activity score (NAS), a semi-quantitative score that accounts for steatosis, ballooned hepatocytes, and lobular inflammation. Terminal deoxynucleotidyl transferase deoxyuridine triphosphate nick-end labeling (TUNEL) assay was performed using the ApopTag Peroxidase In Situ Apoptosis Detection Kit (Millipore Sigma, St. Louis, Mo.); diaminobenzidine (DAB) was used as a peroxidase substrate (Vector Laboratories, Burlingame, Calif.); 0.5% methyl green was used for the counterstain. […]
# [3] = tested on: active ITGβ1 in Huh7 cells; test: LPC-induced ITGβ1 activation in Huh7 cells (immunoprecipitation/immunoblot, immunofluorescence); assay type: cell-based, human; details: 10 μM SB203580
# Method: Whole cell lysates (WCL) were obtained using immuno-precipitate (IP) buffer (50 mM Tris-HCl, pH 7.4; 1% Nonidet P-40; 150 mM NaCl) with protease inhibitor and phosphatase inhibitor followed by centrifugation at 15,000 g for 15 minutes at 4° C. Protein concentrations of the lysates were measured by the Bradford assay method (Sigma-Aldrich). In pull-down experiments, aliquots containing 1 mg of protein were incubated with either anti-ITGβ1 (MAB13), anti-ITGβ1 (9EG7) antibody or isotype IgG control antibody for 1 hour at 4° C., then incubated overnight with protein G sepharose beads (GE Healthcare) under rotary agitation. Pelleted proteins were washed with IP buffer for seven times, solubilized in SDS sample buffer, boiled for 10 minutes, and then subjected to SDS-PAGE and immunoblot analysis.
# Huh7 cells were seeded on fibronectin-coated coverslips and fixed with 4% paraformaldehyde following LPC treatment. After permeabilization using 0.2% TritonX-100, the cells were blocked using blocking buffer (5% bovine serum albumin, 0.1% glycine in PBS) for one hour at room temperature, and then incubated with the primary antibody of interest overnight at 4° C. […] Pearson's correlation coefficient of co-localization was employed to quantify the degree of colocalization between fluorophores. Ten to 20 random fields in each group were selected for quantification and statistical analysis.
SMILES,PA-induced VCAM-1 protein level (Western blot) [1],PA-induced VCAM-1 mRNA expression ([1]; real-time qPCR),MoMF-related hepatic inflammation by Galectin-3 staining of liver sections [2],NAS score [2],hepatic mRNA expression of Acta2 (α-SMA) [2],hepatic mRNA expression of Ccr2 [2],hepatic mRNA expression of Cd68 [2],hepatic mRNA expression of Col1α1 [2],hepatic mRNA expression of Tnfα [2],hepatic steatosis [2],liver injury as number of TUNEL positive hepatocyte [2],liver triglyceride content [2],plasma ALT levels [2],stellate cell activation and liver fibrogenesis by Sirius red staining [2],stellate cell activation and liver fibrogenesis by immunohistochemistry for α-SMA [2],LPC-induced activation of ITGβ1 (immunofluorescence microscopy) ([3]; 5 μM LPC 20 minutes),"LPC-induced increase in active ITGβ1 (9EG7 immunoprecipitation, immunoblot) ([3]; 20 μM LPC 15-30 min)"
"CC(C)(Sc1cc(C(C)(C)C)c(O)c(C(C)(C)C)c1)Sc1cc(C(C)(C)C)c(OC(=O)CCC(=O)O)c(C(C)(C)C)c1 [AGI-1067, succinobucol]",inhibits,inhibits,reduced,reduced,attenuated,reduced,reduced,attenuated,reduced,did not alter,reduced,did not alter,did not reach the statistical significance,attenuated,attenuated,,
C[S+]([O-])c1ccc(-c2nc(-c3ccncc3)c(-c3ccc(F)cc3)[nH]2)cc1 (centres unmarked) [SB203580],,,,,,,,,,,,,,,,diminished,reduced

# — US20220220206A1, “TREATING CHRONIC LIVER DISEASE” (Mayo Foundation for Medical Education and Research, priority 2019, published 2022)
